Assay results as given in PubChem BioAssay (NCI).
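96-well plates; 48 h exposure; 5 concentrations. Endpoints by linear interpolation between flanking doses. Not reached: highest tested concentration assigned. GI50 marks 50% less growth. At the TGI there is no net growth.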

Assays:
Assay in all cases: NCI tumour cell line growth inhibition, 48 h
786-0 renal = system: 786-0 renal
BT-549 breast = system: BT-549 breast
COLO 205 colon = system: COLO 205 colon
DU-145 prostate = system: DU-145 prostate
MOLT-4 leukemia = system: MOLT-4 leukemia
OVCAR-3 ovarian = system: OVCAR-3 ovarian
SK-MEL-28 melanoma = system: SK-MEL-28 melanoma
SNB-19 CNS = system: SNB-19 CNS

Row | SMILES | GI50 (786-0 renal) | TGI (786-0 renal) | GI50 (BT-549 breast) | TGI (BT-549 breast) | GI50 (COLO 205 colon) | GI50 (DU-145 prostate) | TGI (DU-145 prostate) | GI50 (MOLT-4 leukemia) | TGI (MOLT-4 leukemia) | GI50 (OVCAR-3 ovarian) | TGI (OVCAR-3 ovarian) | GI50 (SK-MEL-28 melanoma) | TGI (SK-MEL-28 melanoma) | GI50 (SNB-19 CNS) | TGI (SNB-19 CNS) | TGI (COLO 205 colon)
1 | COc1ccc(C(=O)Nc2ncc(Cc3ccc(F)cc3)s2)cc1 | 0.11 µM | > 100 µM | 0.642 µM | > 100 µM | 0.0584 µM | 0.138 µM | > 100 µM | 0.0574 µM | > 100 µM | 0.0346 µM | 1.32 µM | 2.16 µM | > 100 µM | 0.0963 µM | > 100 µM | –
2 | CC1OC(OC2C(OC3C[C@@]4(C)C(C[C@H](O)[C@H]5[C@H](C6(C)CCC(C(C)(C)O)O6)CCC54C)[C@]4(C)CC[C@@H](O)C(C)(C)C34)OC(CO)C(O)C2O)C(O)C(O)C1O (stereo partly specified) (tested in a mixture with another compound) | – | > 100 µM | – | > 100 µM | – | – | > 100 µM | – | > 100 µM | – | > 100 µM | – | > 100 µM | – | > 100 µM | > 100 µM
3 | O=C(c1ccc(O)cc1)c1ccc(C(=O)c2ccc(O)cc2)cc1 | > 100 µM | > 100 µM | 94 µM | > 100 µM | > 100 µM | > 100 µM | > 100 µM | > 100 µM | > 100 µM | > 100 µM | > 100 µM | > 100 µM | > 100 µM | 71.1 µM | > 100 µM | > 100 µM
4 | Cc1c(N2C(=O)/C(=C\c3ccc(O)cc3)N=C2c2ccccc2)c(=O)n(-c2ccccc2)n1C | > 100 µM | > 100 µM | – | – | > 100 µM | > 100 µM | > 100 µM | > 100 µM | > 100 µM | > 100 µM | > 100 µM | > 100 µM | > 100 µM | > 100 µM | > 100 µM | > 100 µM
5 | O=C1C2C(C(=O)[N]1[Hg][c]1ccccc1)C1(Cl)C(Cl)=C(Cl)C2(Cl)C1(Cl)Cl (stereo unspecified) | 1.85 µM | 3.48 µM | 1.2 µM | 2.49 µM | 0.809 µM | 1.66 µM | 3.29 µM | 1.88 µM | 8.76 µM | 0.229 µM | 0.467 µM | 1.38 µM | 2.73 µM | 1.54 µM | 2.99 µM | 2.05 µM
6 | Cc1cc[c-]cc1.Fc1c[c-]c(-c2ccccn2)c(F)c1.N#CCC[PH+](CCC#N)c1ccccc1.[Pt+2] | 3.57 µM | 18.8 µM | 3.22 µM | 31.6 µM | – | 2.46 µM | 6.22 µM | 2.79 µM | > 100 µM | 3.26 µM | 13.1 µM | 2.18 µM | 4.84 µM | 4.91 µM | > 100 µM | –
7 | Cc1cc(N(CCCNc2ccnc3cc(Cl)ccc23)Cc2cccs2)nc(Cl)n1 | 5.48 µM | 20.6 µM | 3.69 µM | 15.7 µM | 2.24 µM | 7.9 µM | 23.1 µM | 2.72 µM | 22.9 µM | 6.43 µM | 21.4 µM | 4.87 µM | 19 µM | 7.58 µM | 25.4 µM | 7.8 µM
8 | COc1ccc(-c2nnc3n(C)c(=O)c4ccccc4n23)cc1O | 2.57 µM | 28 µM | 2.91 µM | > 100 µM | 3.36 µM | 2.22 µM | > 100 µM | 1.17 µM | > 100 µM | 0.162 µM | 12.7 µM | 12.2 µM | > 100 µM | 0.862 µM | > 64.9 µM | 21.1 µM
9 | Cc1ccc(C(=O)Nc2ccc(CN3CCN(C)CC3)c(C(F)(F)F)c2)cc1C#Cc1cncc2ncccc12 | 0.48 µM | 1.94 µM | 2.33 µM | 12.6 µM | 0.221 µM | 0.388 µM | 1.53 µM | 0.353 µM | 16.8 µM | 0.558 µM | 14.7 µM | 0.286 µM | 1.55 µM | 1.29 µM | 2.62 µM | 5.56 µM
10 | Cc1cc(-c2ccccc2)c(C)n1Cc1ccc(Cl)cc1 | 5.35 µM | 39.9 µM | 5.5 µM | > 100 µM | 5.96 µM | 6.87 µM | > 100 µM | 4.84 µM | 91.9 µM | 3.54 µM | 23.5 µM | 6.18 µM | > 100 µM | 36.4 µM | > 100 µM | 27.8 µM
11 | O=C1Nc2ccccc2C12CC(c1ccccc1)=NN2 (stereo unspecified) | 6.36 µM | 65.2 µM | 6.35 µM | > 100 µM | 4.62 µM | 9.63 µM | 51.1 µM | 8.41 µM | > 100 µM | 5.1 µM | 80.7 µM | 15.7 µM | > 100 µM | 12.7 µM | > 100 µM | 25.9 µM
12 | CN(C)CCCNC(=O)c1cc2c3ccccc3[nH]c2c2ncccc12 | 11.7 µM | 42.4 µM | 9.33 µM | 25.1 µM | 4.43 µM | 19.7 µM | > 100 µM | 8.78 µM | > 100 µM | 16.3 µM | 54.9 µM | 14.3 µM | 31.1 µM | 17.4 µM | 85.3 µM | 16.6 µM
13 | COC(=O)C1CC2(c3ccc(C)cc3)C(c3ccc(C)cc3)=C(c3ccc(C)cc3)C1(c1ccc(C)cc1)S2=O (stereo unspecified) | 70.8 µM | > 100 µM | > 100 µM | > 100 µM | > 100 µM | > 100 µM | > 100 µM | > 100 µM | > 100 µM | > 100 µM | > 100 µM | > 100 µM | > 100 µM | 36.2 µM | > 100 µM | > 100 µM
14 | COc1cc(C2c3cc4c(cc3C3OC(=O)C2C3CO)OCO4)cc(OC)c1OC (stereo unspecified) | 0.0437 µM | > 100 µM | 0.0334 µM | 9.27 µM | 0.0188 µM | 0.0285 µM | – | 0.0385 µM | > 100 µM | – | – | 8.68 µM | > 100 µM | – | > 100 µM | 0.0372 µM
15 | COc1cc2c(cc1OCCCCC(=O)Nc1ccc(-c3nc4ccccc4s3)cc1)N=C[C@@H]1CCCN1C2=O | 1.56 µM | 3.51 µM | 1.13 µM | 2.36 µM | 1.69 µM | – | – | 1.63 µM | 5.52 µM | 1.86 µM | 8.01 µM | 2.23 µM | 5.81 µM | 2.68 µM | 11.2 µM | 3.07 µM
